US4638070A, “Heterocyclic amino-alcohol derivatives” (Continental Pharma, priority 1980, dated 1987)

Experiments:
[1] = Acute toxicity, oral, LD50 (Litchfield and Wilcoxon); conditions: mouse, in vivo, fasted male mice, confidence limits p=95% in brackets
Method: (1) The acute toxicity was determined on fasted male mice. The tested substances were orally administered and LD50 values (lethal dose for 50% of animals) were calculated according to the method of Litchfield and Wilcoxon (J. Pharmacol. exp. Ther. 96, 94-113, 1949). These LD50 values are given in mg/kg and also, when possible, with their confidence limits for p=95%.

[2] = system: guinea-pig ileum (histamine contractions); assay: Antispasmodic activity in vitro, contractions caused by histamine; conditions: added 15 minutes before spasm-producing agent
Method: (§1) (4) The antispasmodic activity was measured in vitro, on guinea-pig ileum, the contractions of which were caused by histammne (Hist.), acetylcholine (Achol) or barium chloride (BaCl2). The tested products were added to perfusion bath 15 minutes before the spasm-producing agents.
(§2) The dose is given in micograms (μg) per ml of bath causing complete spasm inhibition.

[3] = system: guinea-pig ileum (acetylcholine contractions); assay: Antispasmodic activity in vitro, contractions caused by acetylcholine; conditions: added 15 minutes before spasm-producing agent
Method: as §1, §2

[4] = system: guinea-pig ileum (barium chloride contractions); assay: Antispasmodic activity in vitro, contractions caused by barium chloride; conditions: added 15 minutes before spasm-producing agent
Method: as §1, §2

femoral artery = assay: Vasodilator activity, femoral artery (technique of perfused paw); type: in vivo; set-up: key: O: no action; +: slight activity; ++: effect equal to half the effect of papaverine; +++: effect equal to that of papaverine; ++++: effect higher than that of papaverine; conditions: intra-arterial, 30 mg/kg, anaesthetized dog, vs papaverine at same dose
Method: (3) The vasodilator activity was measured at the level of femoral artery on anaesthetized dog (technique of perfused paw). The tested substances were given intra-arterially at the rate of 30 mg/kg. Results are expressed with respect to papaverine tested at the same dose.
++: effect equal to half the effect of papaverine.
+++: effect equal to that of papaverine.
++++: effect higher than that of papaverine.

[5] = system: unanaesthetized, hypertension-suffering rat; assay: Antihypertensive activity (systolic arterial pressure), oral; type: in vivo; conditions: 60 mg/kg, hypertensive rat, 3 hours
Outline: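 Conscious hypertensive rats given compound orally at 60 mg/kg; systolic arterial pressure measured every 30 min for 2 h pre-dose and 3 h post-dose. Scored O (no fall), + (<10 mm Hg), ++ (10–20 mm Hg), +++ (>20 mm Hg).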

| Compound | LD50 [1] | ANTISPASMODIC ACTIVITY HIST. (dose causing complete spasm inhibition) [2] | ANTISPASMODIC ACTIVITY ACHOL (dose causing complete spasm inhibition) [3] | ANTISPASMODIC ACTIVITY BaCl2 (dose causing complete spasm inhibition) [4] | VASODILATOR ACTIVITY (femoral artery) | ANTIHYPERTENSIVE ACTIVITY [5] |
| --- | --- | --- | --- | --- | --- | --- |
| CC(NCCCCSc1ccccc1)C(O)c1ccc2c(c1)CCCS2 (stereo not shown) [No 25] | > 4000 mg/kg | 0.8 μg per ml | 0.8 μg per ml | 0.8 μg per ml | – | – |
| CCCCCCCCNC(C)C(O)c1ccc2c(c1)CCC(C)S2 (stereo not shown) [No 4] | 4000 mg/kg | – | – | > 16.7 μg per ml | +++ | – |
| CC(C(O)c1ccc2c(c1)CCCS2)N1CCC(Cc2ccccc2)CC1 (stereo not shown) [No 26] | – | 0.017 μg per ml | 1.7 μg per ml | 0.8 μg per ml | – | +++ (reduction higher than 20 mm Hg) |
| CC(NCCc1ccccc1)C(O)c1ccc2c(c1)CCCS2 (stereo not shown) [No 13] | – | 3.3 μg per ml | 0.8 μg per ml | 3.3 μg per ml | ++ | – |
| Cc1ccccc1N1CCN(C(C)C(O)c2ccc3c(c2)CCCS3)CC1 (stereo not shown) [No 15] | – | 0.8 μg per ml | 3.3 μg per ml | > 16.7 μg per ml | +++ | +++ (reduction higher than 20 mm Hg) |
| CC(NCCCCCc1ccccc1)C(O)c1ccc2c(c1)CCCS2 (stereo not shown) [No 8] | – | 0.8 μg per ml | 1.7 μg per ml | 0.8 μg per ml | ++++ | – |
| CC(NCCCCc1ccccc1)C(O)c1ccc2c(c1)CCCS2 (stereo not shown) [No 2] | > 4000 mg/kg | 1.7 μg per ml | 8.3 μg per ml | 16.7 μg per ml | ++++ | +++ (reduction higher than 20 mm Hg) |
| COc1ccc(CCNC(C)C(O)c2ccc3c(c2)CCCS3)cc1OC (stereo not shown) [No 22] | 3700 mg/kg | 3.3 μg per ml | 8.3 μg per ml | 8.3 μg per ml | – | – |
| CCCCCCCCNC(C)C(O)c1ccc2c(c1)CCCS2 (stereo not shown) [No 1, 1-(6-Thiochromanyl)-2-n-octylamino-1-propanol] | > 4000 mg/kg | 3.3 μg per ml | 3.3 μg per ml | 1.7 μg per ml | ++++ | ++ (reduction of 10 to 20 mm Hg) |
| CC(NCCCc1ccccc1)C(O)c1ccc2c(c1)CCCS2 (stereo not shown) [No 17] | > 4000 mg/kg | 0.8 μg per ml | 1.7 μg per ml | 1.7 μg per ml | +++ | +++ (reduction higher than 20 mm Hg) |
| CC(NC1CCCCCCC1)C(O)c1ccc2c(c1)CCS2 (stereo not shown) [No 28] | 580 mg/kg | 0.8 μg per ml | 1.7 μg per ml | 1.7 μg per ml | + | – |
| CCCCCCCCNC(C)C(O)c1ccc2c(c1)CCS2 (stereo not shown) [No 3, 1-(2,3-dihydro-5-benzo[b]thienyl)-2-n-octylamino-1-propanol] | 4450 mg/kg | 8.3 μg per ml | 16.7 μg per ml | 8.3 μg per ml | +++ | +++ (reduction higher than 20 mm Hg) |
| CC1CCc2cc(C(O)C(C)NCCc3ccccc3)ccc2S1 (stereo not shown) [No 9] | ~2750 mg/kg | 3.3 μg per ml | 3.3 μg per ml | 0.8 μg per ml | +++ | – |
| CC(NCCCCOc1ccccc1)C(O)c1ccc2c(c1)CCCS2 (stereo not shown) [No 24] | > 4000 mg/kg | 0.33 μg per ml | 1.7 μg per ml | 1.7 μg per ml | +++ | – |
| CC(NCC(c1ccccc1)c1ccccc1)C(O)c1ccc2c(c1)CCCS2 (stereo not shown) [No 21] | – | 0.33 μg per ml | 0.33 μg per ml | 1.7 μg per ml | +++ | – |
| CC(NC1CCCCCCC1)C(O)c1ccc2c(c1)CCCS2 (stereo not shown) [No 27] | – | 1.7 μg per ml | 1.7 μg per ml | 1.7 μg per ml | ++ | – |
| CCCCCCCCNC(C)C(O)c1ccc2c(c1)CCCCS2 (stereo not shown) [No 11] | 3300 mg/kg | 0.8 μg per ml | 1.7 μg per ml | 3.3 μg per ml | +++ | – |
| Cc1ccccc1N1CCN(C(C)C(O)c2ccc3c(c2)CCC(C)S3)CC1 (stereo not shown) [No 10] | > 4000 mg/kg | 0.33 μg per ml | 16.7 μg per ml | 8.3 μg per ml | ++ | +++ (reduction higher than 20 mm Hg) |
| CCC(=O)c1ccc(OCCNC(C)C(O)c2ccc3c(c2)CC(C)S3)cc1 (stereo not shown) [No 116] | > 4000 mg/kg | 0.17 μg per ml | 3.3 μg per ml | – | ++ | ++ (reduction of 10 to 20 mm Hg) |
| CC1Cc2cc(C(O)C(C)NCCOc3ccccc3)ccc2O1 (stereo not shown) [No 89] | 550 mg/kg | 8.3 μg per ml | 8.3 μg per ml | – | +++ | +++ (reduction higher than 20 mm Hg) |
| 1-(5-indanyl)-2-(4-phenylbutylamino)-1-propanol [No 163] | – | 0.33 μg per ml | 0.8 μg per ml | 0.8 μg per ml | ++++ | +++ (reduction higher than 20 mm Hg) |
| CC(NCCCCc1ccccc1)C(O)c1ccc2c(c1)SCCS2 (stereo not shown) [No 100] | > 2000 mg/kg | 8.3 μg per ml | 1.7 μg per ml | – | ++++ | +++ (reduction higher than 20 mm Hg) |
| Cc1ccc(CCCCNC(C)C(O)c2ccc3c(c2)CCCS3)cc1 (stereo not shown) [No 34] | ~4000 mg/kg | 0.8 μg per ml | 0.8 μg per ml | – | +++ | +++ (reduction higher than 20 mm Hg) |
| CC(NCCOc1ccccc1)C(O)c1ccc2c(c1)CCS2 (stereo not shown) [No 47] | > 4000 mg/kg | 1.7 μg per ml | 1.7 μg per ml | – | ++ ++ | ++ (reduction of 10 to 20 mm Hg) |
| CC1Cc2cc(C(O)C(C)NCCCCc3ccc(Cl)cc3)ccc2S1 (stereo not shown) [No 68] | < 500 mg/kg | 3.3 μg per ml | 0.8 μg per ml | – | +++ | +++ (reduction higher than 20 mm Hg) |
| CCCCSCCCNC(C)C(O)c1ccc2c(c1)CCCS2 (stereo not shown) [No 80] | 5000 mg/kg | 0.8 μg per ml | 1.7 μg per ml | – | ++ | +++ (reduction higher than 20 mm Hg) |
| CC(NCCc1ccccc1)C(O)c1ccc2c(c1)CCCCS2 (stereo not shown) [No 14] | – | 1.7 μg per ml | 3.3 μg per ml | 1.7 μg per ml | +++ | – |
